Toxic doses and inconclusive results are not listed. Rule as the data show it: active = T/C of 150% or more; inactive = T/C below 125%. Square brackets hold non-standard residues; d marks the D form. Peptide text beside a SMILES is read from it. * marks the point of attachment. Cbz = O=C(OCc1ccccc1)*; Sar = CNCC(=O)O
System: L1210 leukemia ip in BDF1 mice, survival T/C
Experiment: NCI In Vivo Anticancer Drug Screen. Data for tumor model L1210 Leukemia (intraperitoneal) in B6D2F1 (BDF1) mice
Conditions: endpoint: mean survival time, higher = longer survival
Outline: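 Read-out is survival time, reported as the treated-group measurement over the vehicle-control measurement.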

[1] = dose: 100.0 mg/kg/injection, schedule: Q01DX009 (ip), vehicle: Klucel (hydroxypropylcellulose) (HPC)
[2] = dose: 200.0 mg/kg/injection, schedule: Q01DX009 (ip), vehicle: Klucel (hydroxypropylcellulose) (HPC)
[3] = dose: 400.0 mg/kg/injection, schedule: Q01DX009 (ip), vehicle: Klucel (hydroxypropylcellulose) (HPC)
[4] = dose: 100.0 mg/kg/injection, schedule: Q04DX003 (ip), vehicle: saline
[5] = dose: 200.0 mg/kg/injection, schedule: Q04DX003 (ip), vehicle: saline
[6] = dose: 400.0 mg/kg/injection, schedule: Q04DX003 (ip), vehicle: saline
[7] = dose: 100.0 mg/kg/injection, schedule: Q01DX009 (ip), vehicle: saline with Tween-80
[8] = dose: 200.0 mg/kg/injection, schedule: Q01DX009 (ip), vehicle: saline with Tween-80
[9] = dose: 400.0 mg/kg/injection, schedule: Q01DX009 (ip), vehicle: saline with Tween-80
[10] = dose: 100.0 mg/kg/injection, schedule: Q01DX001 (ip), vehicle: saline with Tween-80
[11] = dose: 200.0 mg/kg/injection, schedule: Q01DX001 (ip), vehicle: saline with Tween-80
[12] = dose: 100.0 mg/kg/injection, schedule: Q04DX002 (ip), vehicle: Klucel (hydroxypropylcellulose) (HPC)
[13] = dose: 200.0 mg/kg/injection, schedule: Q04DX002 (ip), vehicle: Klucel (hydroxypropylcellulose) (HPC)
[14] = dose: 400.0 mg/kg/injection, schedule: Q04DX002 (ip), vehicle: Klucel (hydroxypropylcellulose) (HPC)

Measured: T/C

CC(=O)c1ccc(C(C)=O)c(OCc2ccccc2)c1
inactive: [1] 101 % of control | dose: 100.0 mg/kg/injection, schedule: Q04DX003 (ip), vehicle: Klucel (hydroxypropylcellulose) (HPC) 103 % of control | [2] 95 % of control | dose: 200.0 mg/kg/injection, schedule: Q04DX003 (ip), vehicle: Klucel (hydroxypropylcellulose) (HPC) 98 % of control | [3] 92 % of control | dose: 400.0 mg/kg/injection, schedule: Q04DX003 (ip), vehicle: Klucel (hydroxypropylcellulose) (HPC) 97 % of control

Nc1ccc(NS(=O)(=O)CS(=O)(=O)Nc2ccc(N)cc2)cc1
inactive: dose: 10.0 mg/kg/injection, schedule: Q01DX001 (ip), vehicle: saline 96 % of control | dose: 20.0 mg/kg/injection, schedule: Q01DX001 (ip), vehicle: saline 101 % of control | dose: 40.0 mg/kg/injection, schedule: Q01DX001 (ip), vehicle: saline 101 % of control

COC(=O)CN(C)C(=O)CNC(=O)OCc1ccccc1 (Cbz-Gly-[Sar]-OMe)
inactive: [4] 97 % of control | [5] 90 % of control | [6] 100 % of control

Nc1ccc(S(=O)(=O)Nc2ccc([N+](=O)[O-])cc2)cc1
inactive: dose: 25.0 mg/kg/injection, schedule: Q01DX009 (ip), vehicle: saline with Tween-80 98 % of control | dose: 50.0 mg/kg/injection, schedule: Q01DX009 (ip), vehicle: saline with Tween-80 93 % of control | [7] 98 % of control | [8] 110 % of control | [9] 100 % of control

NC1=NC(=O)CS1
inactive: [10] 92 % of control | [7] 105 % of control | [4] 86 % of control | [11] 103 % of control | [8] 107 % of control | [5] 93 % of control | dose: 400.0 mg/kg/injection, schedule: Q01DX001 (ip), vehicle: saline with Tween-80 95 % of control | [9] 105 % of control | [6] 86 % of control

[CH3][Sb]1([CH3])([I])[CH2]CCC[CH2]1
inactive: [4] 97 % of control | [5] 97 % of control

O=C(O)/C=C/C(=O)NCCc1ccccc1
inactive: [1] 91 % of control | [2] 102 % of control | [3] 96 % of control

O=C1c2ccccc2C(=O)N1CNc1ccccn1
inactive: dose: 100.0 mg/kg/injection, schedule: Q04DX002 (ip), vehicle: saline with Tween-80 96 % of control | dose: 200.0 mg/kg/injection, schedule: Q04DX002 (ip), vehicle: saline with Tween-80 93 % of control | dose: 400.0 mg/kg/injection, schedule: Q04DX002 (ip), vehicle: saline with Tween-80 100 % of control

COc1ccccc1OCC(=O)N1CCCC1
inactive: [12] 98 % of control | [13] 98 % of control | [14] 117 % of control

Nc1ccc(S(=O)(=O)CCCl)cc1
inactive: [12] 89 % of control | [13] 100 % of control | [14] 100 % of control

Nc1cccc(OCc2nc(N)nc(N)c2-c2ccc(Cl)c(Cl)c2)c1
inactive: [10] 97 % of control | [11] 90 % of control
